Measurements: paper PMC3257202, “Xylan oligosaccharides and cellobiohydrolase I (TrCel7A) interaction and effect on activity” (Biotechnology for Biofuels, 2011)

Legend:
TrCel7A core = target: T1, TrCel7A core (Trichoderma reesei, UniProt P62694); assay: isothermal titration calorimetry; settings: 30°C, binding constant on a molar concentration scale (unit not given)
T1 construct: gene cbh1; GH7 catalytic domain only, first 436 residues after the 17-residue signal peptide; linker and C-terminal family 1 CBM removed; recombinant from Aspergillus oryzae, purified
T1 sequence (P62694 18-453): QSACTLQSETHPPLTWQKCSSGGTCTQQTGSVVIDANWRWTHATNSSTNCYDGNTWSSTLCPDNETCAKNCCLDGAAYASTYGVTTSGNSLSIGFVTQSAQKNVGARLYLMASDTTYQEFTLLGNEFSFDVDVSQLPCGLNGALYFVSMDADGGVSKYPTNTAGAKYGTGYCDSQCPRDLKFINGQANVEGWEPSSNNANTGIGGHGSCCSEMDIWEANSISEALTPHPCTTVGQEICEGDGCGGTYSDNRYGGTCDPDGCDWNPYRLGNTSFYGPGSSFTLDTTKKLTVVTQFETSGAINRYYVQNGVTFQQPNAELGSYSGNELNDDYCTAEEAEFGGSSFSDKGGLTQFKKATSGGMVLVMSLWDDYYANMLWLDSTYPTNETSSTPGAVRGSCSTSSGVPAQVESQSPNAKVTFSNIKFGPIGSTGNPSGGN
Text: isothermal titration calorimetry on TrCel7A core

TrCel7A = target: T2, TrCel7A (Trichoderma reesei, UniProt P62694); assay: isothermal titration calorimetry; settings: 30°C; binding constant on a molar concentration scale (unit not given)
T2 construct: gene cbh1; full-length secreted enzyme (GH7 catalytic domain, glycosylated linker, family 1 CBM), 17-residue signal peptide removed, 52 kDa; recombinant from Aspergillus oryzae, purified
T2 sequence (P62694 18-513): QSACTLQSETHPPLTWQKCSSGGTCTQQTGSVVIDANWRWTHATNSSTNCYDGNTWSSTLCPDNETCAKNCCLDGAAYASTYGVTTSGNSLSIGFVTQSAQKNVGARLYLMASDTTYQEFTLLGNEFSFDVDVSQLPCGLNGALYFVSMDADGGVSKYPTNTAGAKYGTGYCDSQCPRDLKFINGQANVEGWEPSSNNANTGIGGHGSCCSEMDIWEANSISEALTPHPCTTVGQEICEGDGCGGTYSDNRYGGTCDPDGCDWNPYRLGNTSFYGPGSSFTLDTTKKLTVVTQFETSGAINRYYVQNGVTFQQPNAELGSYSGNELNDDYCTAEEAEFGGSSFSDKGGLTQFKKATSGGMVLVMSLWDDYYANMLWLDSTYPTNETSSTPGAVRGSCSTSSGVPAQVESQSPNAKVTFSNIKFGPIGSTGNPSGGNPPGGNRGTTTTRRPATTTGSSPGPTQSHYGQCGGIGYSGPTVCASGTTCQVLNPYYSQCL
Text: isothermal titration calorimetry on TrCel7A

Molecule | TrCel7A core (K) (TrCel7A core) | TrCel7A (K) (TrCel7A) | TrCel7A core (K) (TrCel7A core; compound identity contradictory in print (name hexaose, formula (xyl)5))
OC1OC[C@@H](O[C@@H]2OC[C@@H](O[C@@H]3OC[C@@H](O[C@@H]4OC[C@@H](O[C@@H]5OC[C@@H](O[C@@H]6OC[C@@H](O[C@@H]7OC[C@@H](O)[C@H](O)[C@H]7O)[C@H](O)[C@H]6O)[C@H](O)[C@H]5O)[C@H](O)[C@H]4O)[C@H](O)[C@H]3O)[C@H](O)[C@H]2O)[C@H](O)[C@H]1O (some centres unmarked) [Xyloheptaose] | 7.43 × 10^3 | 5.76 × 10^3 | –
OC1OC[C@@H](O[C@@H]2OC[C@@H](O[C@@H]3OC[C@@H](O[C@@H]4OC[C@@H](O)[C@H](O)[C@H]4O)[C@H](O)[C@H]3O)[C@H](O)[C@H]2O)[C@H](O)[C@H]1O (some centres unmarked) [Xylotetraose] | 2.97 × 10^3 | – | –
OC1OC[C@@H](O[C@@H]2OC[C@@H](O[C@@H]3OC[C@@H](O)[C@H](O)[C@H]3O)[C@H](O)[C@H]2O)[C@H](O)[C@H]1O (some centres unmarked) [Xylotriose] | > 1.0 × 10^3 | – | –
Xylohexaose (xyl)5 | – | – | 3.44 × 10^3
